Holding throughout (experiment): inhibition of tumour cell growth, NCI panel, 48 h
In experiment [1] the test system is ACHN renal.
Experiment [2] relates to HOP-62 NSCLC.
Experiment [3] relates to KM12 colon.
The test system of experiment [4] is NCI-H226 lung.
Experiment [5] relates to NCI-H522 lung.
Experiment [6] deals with RXF 393 renal.
Experiment [7] concerns SF-539 CNS.
For experiment [8], the system named is SN12C renal.
Experiment [9] has as its system UO-31 renal.

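In this assay, cells in 96-well plates receive the compound at five concentrations for 48 hours. Endpoints are linearly interpolated between the surrounding concentrations. The concentration for 50% growth inhibition is given as GI50. TGI: total growth inhibition.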 Some results are limits rather than exact numbers.

For `CO[C@H]1/C=C/O[C@@]2(C)Oc3c(C)c(O)c4c(O)c(c(/C=N/N5C(C)CN(Cc6ccc(C#N)cc6)CC5C)c(O)c4c3C2=O)NC(=O)/C(C)=C\C=C\[C@H](C)[C@H](O)[C@@H](C)[C@@H](O)[C@@H](C)[C@H](OC(C)=O)[C@@H]1C` (some centres undefined), the GI50 is 7.89 µM in experiment [1]; 9.76 µM in [2]; 5.89 µM in [3]; 6.06 µM in experiment [4]; 6.22 µM in experiment [5]; 8.88 µM in experiment [6]. For the same compound, the values for the GI50 in experiment [7], in experiment [8] and in experiment [9] were 6.22 µM, 6.73 µM and 3.64 µM, respectively. Moreover, the TGI came out at 16.2 µM in experiment [1]; 20.6 µM in experiment [2]; 12.7 µM in [3]; 12.9 µM in [4]; 22 µM in [5]; 19.4 µM in [6]. Besides, the TGI in experiment [7] was 13 µM; in experiment [8] it was 13.6 µM; in experiment [9], 10.5 µM.
With `N#Cc1c(N)c(C(=O)c2ccc3c(c2)OCCO3)n2c1CCCC2`, the GI50 in experiment [1] was 7.42 µM; in [2], 3.48 µM; in [3], 1.37 µM; in [4], more than 100 µM; in experiment [5] it was 0.58 µM; in experiment [6], 2.29 µM. Besides, the GI50 is 2.38 µM in [7], 6.13 µM in experiment [8] and 6.3 µM in experiment [9]. Also, the TGI in [1] was more than 100 µM; in experiment [2], more than 100 µM; in [3], more than 100 µM; in [4], more than 100 µM; in experiment [6], 17.9 µM; in experiment [7] it was 7.63 µM. Besides, the TGI in [8] and in experiment [9] was more than 100 µM each time.
As for `COc1ccc2c(c1)/C(=C\c1c(-c3ccccc3)nc3sccn13)C(=O)N2`, the GI50 in experiment [1] was 1.23 µM; in experiment [2], 2.42 µM; in experiment [3], 1.55 µM; in [4], 3.44 µM; in [5], 27 µM; in [6], 2.69 µM. Moreover, the results for the GI50 in experiment [7], in experiment [8] and in [9] were 8.23 µM, 9.57 µM and 7.29 µM, respectively. In addition, the TGI in experiment [1] came to 14.7 µM; in experiment [2] it was 14.9 µM; in experiment [4], 33.7 µM; in experiment [5], 67.3 µM; in experiment [6], 21.4 µM; in experiment [7], 20.5 µM. The TGI was more than 26.6 µM in experiment [8] and more than 43.7 µM in experiment [9].
As for `O=C(O)c1nn(-c2ccc(Cl)cc2)c2c1C(=O)c1ccccc1C2=O`, the TGI in experiment [1], in [2], in [3], in [4], in [5] and in [6] was more than 100 µM in each case. Also, the TGI in experiment [7] is 67.4 µM; in experiment [8], more than 100 µM; in [9] it was more than 100 µM.
For the compound `Cc1cc(C)c([I+]c2c(C)cc(C)cc2C)c(C)c1`, the GI50 is 1.17 µM in experiment [1]; 0.841 µM in [2]; 0.505 µM in experiment [4]; 0.351 µM in experiment [5]; 0.398 µM in experiment [6]; 0.891 µM in experiment [7]. For the same compound, the GI50 was 0.301 µM in experiment [8] and 1.57 µM in experiment [9]. For the same compound, the TGI in experiment [1] amounted to 2.47 µM; in experiment [2], 2.16 µM; in [4], 1.92 µM; in [5] it was 1.45 µM; in experiment [6], 1.55 µM; in [7] it was 2.16 µM. The TGI in experiment [8] was found to be 1.21 µM; in experiment [9], 3.7 µM.
Consider `COc1ccc(Cc2ccc3[nH]c(=O)cc(C)c3c2)cc1S(=O)(=O)O`, for which the TGI in experiment [1], in experiment [2], in experiment [3], in [4], in experiment [5] and in experiment [6] was more than 100 µM throughout. For the same compound, the TGI in experiment [7], in experiment [8] and in [9] was more than 100 µM each time.
With `CC1(C)CC[C@]2(C(=O)NCCNCCN)CC[C@]3(C)C(=CC[C@@H]4[C@@]5(C)CCC(=O)C(C)(C)[C@@H]5CC[C@]43C)[C@@H]2C1`, the GI50 in experiment [1] was 1.77 µM; in [2] it was 2.05 µM; in experiment [3] it was 1.85 µM; in experiment [4], 11 µM; in experiment [5] it was 1.78 µM; in experiment [6] it was 1.57 µM. Besides, the GI50 was 1.72 µM in experiment [7], 1.68 µM in [8] and 1.65 µM in experiment [9]. Further, the TGI in experiment [1] was determined as 3.2 µM; in experiment [2], 4.13 µM; in [3], 3.4 µM; in experiment [4], 36.1 µM; in [5], 3.91 µM; in experiment [6], 2.93 µM. Besides, the results for the TGI in experiment [7], in experiment [8] and in experiment [9] were 3.11 µM, 3.13 µM and 3.06 µM, respectively.
With `Cn1cc(-c2ncnc3ccc(-c4cnc(Cl)c(NS(C)(=O)=O)c4)cc23)c2ccccc21`, the GI50 in experiment [1] is 0.781 µM; in experiment [2] it was 0.791 µM; in experiment [3], 1.46 µM; in experiment [4] it was 1.25 µM; in [5] it was 1.42 µM; in [6], 0.435 µM. Moreover, the figures for the GI50 in [7], in experiment [8] and in [9] were 0.656 µM, 0.856 µM and 0.164 µM, respectively. In addition, the TGI is more than 100 µM in [1]; more than 22.6 µM in [2]; 19.2 µM in experiment [3]; 74.7 µM in [4]; more than 100 µM in experiment [5]; 4.05 µM in experiment [6]. In addition, the TGI is 4.3 µM in experiment [7], more than 100 µM in experiment [8] and 5 µM in [9].
As to `C=C(C)[C@@H]1C/C=C(/COC(C)=O)CC[C@H]2O[C@@]2(C)CC/C=C(\C)CC1`, the GI50 was more than 100 µM in experiment [1]; more than 100 µM in experiment [2]; more than 100 µM in experiment [3]; more than 100 µM in experiment [4]; more than 100 µM in experiment [5]; 33.6 µM in experiment [6]. The GI50 is more than 100 µM in experiment [8] and 30.4 µM in experiment [9]. Further, the TGI in experiment [1], in experiment [2], in experiment [3], in experiment [4], in experiment [5] and in experiment [6] was more than 100 µM each time. The TGI in [8] and in [9] was more than 100 µM throughout.
As to `O=c1cccccc1O`, the TGI in [1], in experiment [3], in experiment [4], in experiment [5], in [6] and in [9] was more than 100 µM throughout.

For the origin of these results see PubChem BioAssay (NCI).
